In US7749967B2, “Peptides of a melanoma antigen and their use in diagnostic, prophylactic, and therapeutic methods” (The United States of America as represented by the …, priority 2001, dated 2010):

System: gp100170-190-specific T cell clone (HLA-DRβ1*0701 restricted)
Experiment: IFN-γ release by gp100-specific CD4+ T cell clones co-cultured with EBV-B cells pulsed with peptide or protein (ELISA)
Assay type: cell-based, human
Conditions: for Gp100 Peptide Identification (IFN-γ; pg/ml) 10 μM: peptide pulsed at 10 μM on EBV-B cells; for Gp100 Peptide Identification (IFN-γ; pg/ml) 10 μM / Gp100 Peptide Identification (IFN-γ; pg/ml) 50 μM: 24 h co-culture with T cell clone; for Gp100 Peptide Identification (IFN-γ; pg/ml) 50 μM: peptide pulsed at 50 μM on EBV-B cells
Excerpt: The reactivity of nine representative positive clones is presented in FIG. 1A along with 4 representative negative wells (neg1 to neg4). Eight of the 46 positive clones were expanded and further characterized. […] To further characterize the reactivity, some of the clones were co-cultured with autologous B cells pulsed with a bacterially produced gp100 protein. […] In order to identify the MHC restriction element, antibodies known to bind and block the presentation by defined MHC molecules were used. Recognition by clones 6 and 8 of target cells pulsed with the gp100 protein was inhibited when using blocking antibodies against MHC class II and HLA-DR but the recognition was unchanged when using a blocking MHC class I antibody. […] By using HLA-DR matched B cells, the restriction element was identified as HLA-DRβ1*0701 (patient A is HLA-DRβ1*0701 and *1601; FIG. 2).
To find the epitope recognized, an overlapping gp100 peptide library consisting of 68 peptides of 17 or 21 residues overlapping by 10-12 amino acids was prepared. The autologous EBV-B cells were pulsed with the peptide library and used as targets in a T cell recognition assay using three different T cell clones.
Finally, several peptides were synthesized in order to define an optimal HLA-DRβ1*0701 epitope (Rammensee, H. G. Immunogenetics 41:178-228, 1995; Chicz et al. J. Exp. Med. 178:27-47, 1993). […] Finally, substitutions were made at position 5 of the gp100174-394 peptide presuming that this is position 1 according to the defined motif for HLA-DRβ1*0701 (SYFPEITHI web site, http://syfpeithi.de/). However, none of the peptides were better recognized when pulsed at 10 μM or 1 μM compared to the wild type gp100174-394 peptide.
The gp100 peptide library consisted of 68 peptides of 17 to 21 residues overlapping by 10 to 12 amino acids. The peptides were synthesized by solid phase FMOC methodology as previously described (Parkhurst et al. J. Immunol. 157:2539-2548, 1996). A control peptide derived from the Ig kappa chain known to bind to HLA-DRβ1*0701 was also prepared (Chicz et al. J. Exp. Med. 178:27-47, 1993). Recombinant gp100 protein was made and purified as previously described Touloukian et al. J. Immunol. 164:3535-3542, 2000). Recombinant NY-ESO-1 protein is another tumor antigen (Chen, Y T and L J Old. Cancer J. Sci. Am. 5:16-17, 1999) used as negative control and was made and purified as previously described (Zeng et al. J. Immunol. 165:1153-1159, 2000). EBV-B cells (1×10^5) were pulsed with gp100-purified protein or peptides for 18 hours in 96 well flat-bottom plates and T cells were added directly to the pulsed-B cells for a 24 hours recognition assay. In some experiments, EBV-B cells (5×10^5) were pulsed in 48 well plates for 18 hours and cells were washed twice with PBS. T cells were then co-cultured with the pulsed EBV-B cells in 96 well flat-bottom plates for 24 hours. Supernatants were harvested and human IFN-γ was assayed by ELISA using a commercially available kit (R&D Inc.).
Fifty to one hundred thousand responder cells and 4×10^4-10^5 stimulator cells were mixed in 300 ul of AIM-V medium containing […] IL-2 per well in a 96 flat-well microplate. Target cells (1×10^5) were incubated with 1×10^5 specific T cells in 250 μl of T cell medium (AIM-V-based medium) in 96 well flat-bottom plates. Supernatants were harvested after 24 h and human IFN-γ was assayed by ELISA using a commercially available kit (R&D, Inc.; Minneapolis, Minn.).

Sequence	Gp100 Peptide Identification (IFN-γ; pg/ml) 10 μM	Gp100 Peptide Identification (IFN-γ; pg/ml) 50 μM	recognition in overlapping gp100 peptide library screen (68 peptides, all at 100 μM, autologous EBV-B cells, one of three T cell clones, FIG. 3A)	peptide concentration below which recognition was undetectable (titration) (gp100170-190-specific T cell clone, peptide pulsed on EBV-B cells, FIG. 3B) [µM]
GTGRAMLGTHTMEVTVYH [SEQ ID NO:10]	18,770 pg/ml	>25,000 pg/ml	–	–
GTGRAMLGTHTMEVTVYHRRG [SEQ ID NO:9]	22,910 pg/ml	>25,000 pg/ml	–	–
IGTGRAMLGTHTMEVTVYH [SEQ ID NO:11]	17,590 pg/ml	>25,000 pg/ml	–	–
IGTGRAMLGTHTMEVTVYHRR [SEQ ID NO:4]	17,050 pg/ml	>25,000 pg/ml	–	–
LSIGTGRAMLGTHTMEVTVYH [SEQ ID NO:3]	21,000 pg/ml	>25,000 pg/ml	specifically recognized	4 to 10
MLGTHTMEVTVYHRRGSRSYV [SEQ ID NO:16]	52 pg/mL	5,940 pg/ml	–	–
PVSGLSIGTGRAMLGTHTMEV [SEQ ID NO:20]	<8 pg/mL	19 pg/mL	–	–
RAMLGTHTMEVTVYHRRGSRS [SEQ ID NO:15]	912 pg/mL	15,230 pg/ml	–	–
SGLSIGTGRAMLGTHTMEVTV [SEQ ID NO:14]	1,655 pg/ml	4,200 pg/ml	–	–
SIGTGRAMLGTHTMEVTVYH [SEQ ID NO:12]	20,710 pg/ml	>25,000 pg/ml	–	–
SIGTGRAMLGTHTMEVTVYHR [SEQ ID NO:13]	12,210 pg/ml	>25,000 pg/ml	–	–
TGRAFLGTHTMEVTVYHRRGS [SEQ ID NO:17]	19,390 pg/ml	>25,000 pg/ml	–	–
TGRALLGTHTMEVTVYHRRGS [SEQ ID NO:18]	23,140 pg/ml	>25,000 pg/ml	–	–
TGRAMLGTHTMEVTVYH [SEQ ID NO:2]	14,010 pg/ml	>25,000 pg/ml	–	–
TGRAMLGTHTMEVTVYHR [SEQ ID NO:6]	11,100 pg/ml	>25,000 pg/ml	–	–
TGRAMLGTHTMEVTVYHRR [SEQ ID NO:7]	11,550 pg/ml	>25,000 pg/ml	–	–
TGRAMLGTHTMEVTVYHRRG [SEQ ID NO:8]	17,910 pg/ml	>25,000 pg/ml	–	–
TGRAMLGTHTMEVTVYHRRGS [SEQ ID NO:5]	17,140 pg/ml	>25,000 pg/ml	–	–
TGRAYLGTHTMEVTVYHRRGS [SEQ ID NO:19]	11,640 pg/ml	>25,000 pg/ml	–	–
